Reference: patent US6346535B1, “Fungicidal mixtures” (American Cyanamid Company, priority 1999, dated 2002)

Tests used:
Type in all cases: in vivo
[1] = test system: Blumeria graminis on wheat; experiment: Greenhouse trial, 4 day curative, Blumeria graminis on wheat; conditions: compound alone
Protocol: The trials are carried out under greenhouse (Examples 1 to 18) or field conditions (Example 19) in residual or curative applications. The fungicides are applied in single treatments, or in a combination comprising a benzophenone of formula I and a compound selected from (A) through (E) as defined above. The compounds are applied in form of an aqueous spray mix obtained from a concentrated formulation or the technical material. […] Seed is planted in 6 cm diameter plastic pots and maintained in the greenhouse. […] When the primary leaf is fully expanded (in the case of cereals) or several leaves are present (in the case of dicots), formulated test compounds are sprayed with a three nozzle overhead fungicide sprayer to near run-off. Alternatively, a single nozzle overhead track sprayer is used for application of the compounds to cereals at a rate of 200 liters/ha (l/ha). Plants are then allowed to air-dry. […] Inoculation precedes treatment in the case of curative evaluations and follows treatment in case of residual evaluations. For inoculation of powdery mildew disease, plants are set up on greenhouse benches with bottom watering mats and inoculated by dusting them with conidia from infected plants. Between inoculation and treatment for curative evaluations and between treatment and inoculation for residual evaluations, plants are maintained in the greenhouse with bottom watering. For inoculation of non-powdery mildew diseases, an aqueous spore suspension of the pathogen is applied to the plant and the plants are kept 1-2 days in a moist infection chamber before being returned to the greenhouse where they are maintained by bottom watering. […] Disease on the foliage as percent leaf area with disease symptoms/signs is evaluated about 7 days after inoculation. In the case of wheat, the tips and bases of the leaves are excluded from the evaluation. [formula] […] Compounds are dissolved in acetone prior to addition of the water; the Tween 20 can be added through either the acetone or the water. Dilutions are made using the solvent/surfactant system. Formulated compounds are prepared using deionized water. Assessments of the diseases took place at the indicated day after the application of the compounds. Per cent infected leaf area infected was evaluated. […] Synergy of a fungicide mixture was determined by comparing the actual (observed) fungicidal activity of the mixture to the expected fungicidal activity of the mixture as calculated using the COLBY formula given hereinabove.

[2] = test system: Blumeria graminis on wheat; experiment: Greenhouse trial, 3 day protective, Blumeria graminis on wheat; conditions: Table V, compound alone
Text: (§1) The fungicides are applied in single treatments, or in a combination comprising a benzophenone of formula I and a compound selected from (A) through (E) as defined above. The compounds are applied in form of an aqueous spray mix obtained from a concentrated formulation or the technical material.
(§2) 1. Seed is planted in 6 cm diameter plastic pots and maintained in the greenhouse.
(§3) 2. When the primary leaf is fully expanded (in the case of cereals) or several leaves are present (in the case of dicots), formulated test compounds are sprayed with a three nozzle overhead fungicide sprayer to near run-off. Alternatively, a single nozzle overhead track sprayer is used for application of the compounds to cereals at a rate of 200 liters/ha (l/ha). Plants are then allowed to air-dry.
(§4) 3. Inoculation precedes treatment in the case of curative evaluations and follows treatment in case of residual evaluations. For inoculation of powdery mildew disease, plants are set up on greenhouse benches with bottom watering mats and inoculated by dusting them with conidia from infected plants. Between inoculation and treatment for curative evaluations and between treatment and inoculation for residual evaluations, plants are maintained in the greenhouse with bottom watering. For inoculation of non-powdery mildew diseases, an aqueous spore suspension of the pathogen is applied to the plant and the plants are kept 1-2 days in a moist infection chamber before being returned to the greenhouse where they are maintained by bottom watering.
(§5) 4. Disease on the foliage as percent leaf area with disease symptoms/signs is evaluated about 7 days after inoculation. In the case of wheat, the tips and bases of the leaves are excluded from the evaluation. [formula]
(§6) 1. Technical compounds are formulated in a solvent/surfactant system consisting of 5% acetone and 0.05% Tween 20 in deionized water. Compounds are dissolved in acetone prior to addition of the water; the Tween 20 can be added through either the acetone or the water. Dilutions are made using the solvent/surfactant system. Formulated compounds are prepared using deionized water.
(§7) Assessments of the diseases took place at the indicated day after the application of the compounds. Per cent infected leaf area infected was evaluated. The efficacy of the compounds/compounds mixtures to control the diseases was calculated by using the formula given above under item 4: […]
(§8) Synergy of a fungicide mixture was determined by comparing the actual (observed) fungicidal activity of the mixture to the expected fungicidal activity of the mixture as calculated using the COLBY formula given hereinabove.
Fungicidal Efficacy of the Mixture of BP-5+Triforine (3 Day Protective) Against Blumeria graminis on Wheat
Fungicidal Efficacy of the Mixture of BP-1+Triadimefon (3 Day Protective) Against Blumeria graminis on Wheat

Cercospora beticola = experiment: Field trial against the sugar beet disease Cercospora beticola; conditions: Table XIX, compound alone
Protocol: The trials are carried out under greenhouse (Examples 1 to 18) or field conditions (Example 19) in residual or curative applications. The fungicides are applied in single treatments, or in a combination comprising a benzophenone of formula I and a compound selected from (A) through (E) as defined above. The compounds are applied in form of an aqueous spray mix obtained from a concentrated formulation or the technical material. For the field study formulated benzophenones BP-1 through BP-4 and formulated compounds from (A) through (E) were used. The compounds are applied according to good agricultural practice in form of an aqueous spray mix obtained from concentrated formulation or the technical material at a rate of 400 l/ha. The disease control is evaluated according to the formula given for the greenhouse tests. Fungicidal Efficacy of the Mixture of BP-1+Metconazole in the Field Against the Sugar Beet Disease Cercospora beticola The tank mix was obtained from a SC formulation containing 100 g of BP-1 per liter and a SL formulation containing 60 g of metconazole per liter.

[3] = test system: Erysiphe cichoracearum on cucumbers; experiment: Greenhouse trial, 4 day residual, Erysiphe cichoracearum on cucumbers; conditions: Golovinomyces cichoracearum, 96 h, Table XI, compound alone, read-out: Observed Efficacy
How it was run: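 Cucumber plants were sprayed to near run-off with compounds or mixtures (5% acetone/0.05% Tween 20 aqueous). Four days later they were inoculated by dusting with Erysiphe cichoracearum conidia. Percent diseased leaf area was assessed about 7 days after inoculation, and efficacy and Colby synergy were calculated from it.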

[4] = test system: Pyrenophora teres on barley; experiment: Greenhouse trial, 4 day residual, Pyrenophora teres on barley; conditions: Pyrenophora teres, 96 h, Table XIII (Example 13), 4 day residual, read-out: Observed Efficacy
Text: as §1, §2, §3, §4, §5, §6, §7, §8
Fungicidal Efficacy of the Mixture of BP-4+Other Fungicides (4 Day Residual) Against Pyrenophora teres on Barley

[5] = test system: Blumeria graminis f. sp. tritici on wheat; experiment: Greenhouse trial, 2 day curative, Blumeria graminis f. sp. tritici on wheat; conditions: Table XVII, compound alone
Protocol: as §1, with “The trials are carried out under greenhouse (Examples 1 to 18) or field conditions (Example 19) in residual or curative applications. The fungicides” for “The fungicides”
as §2, §3, §4, §5, §6, §7, §8
Fungicidal Efficacy of the Mixture of Different Benzophenones+Metconazole (2 Day Curative) Against Blumeria graminis f. sp. tritici on Wheat
The tank mixes were obtained from technical material of the benzophenones BP-2 and BP-4 and metconazole.

| Structure (SMILES) | Observed Efficacy ([1]; Table I, dose rate 25 ppm) [%] | Observed Efficacy ([1]; Table I, dose rate 125 ppm) [%] | Observed Efficacy ([1]; Table II, dose rate 25 ppm) [%] | Observed Efficacy ([1]; Table II, dose rate 125 ppm) [%] | Observed Efficacy ([1]; Table III, dose rate 25 ppm) [%] | Observed Efficacy ([1]; Table III, dose rate 125 ppm) [%] | Observed Efficacy ([2]; dose rate 1 ppm) [%] | Observed Efficacy ([2]; dose rate 5 ppm) [%] | Observed Efficacy (Cercospora beticola; dose rate 250 g/ha) [%] | Observed Efficacy (Cercospora beticola; dose rate 90 g/ha) [%] | pest or weed control at 0.4 ppm ([3]; dose rate 0.4 ppm) [%] | pest or weed control at 10 ppm ([3]; dose rate 10 ppm) [%] | pest or weed control at 50 ppm ([3]; dose rate 50 ppm) [%] | pest or weed control at 0.4 ppm ([4]; dose rate 0.4 ppm) [%] | pest or weed control at 10 ppm ([4]; dose rate 10 ppm) [%] | Observed Efficacy ([5]; dose rate 0.33 ppm) [%] | Observed Efficacy ([5]; dose rate 1 ppm) [%] | Observed Efficacy ([5]; dose rate 3 ppm) [%] | Observed Efficacy ([5]; dose rate 9 ppm) [%] | Observed Efficacy ([5]; dose rate 27 ppm) [%] |
| --- | --- | --- | --- | --- | --- | --- | --- | --- | --- | --- | --- | --- | --- | --- | --- | --- | --- | --- | --- | --- |
| CCCCOc1c(OC)c(OC)cc(C)c1C(=O)c1c(Cl)cccc1Cl [BP-1, 6′-butoxy-2,6-dichloro-4′,5′-dimethoxy-2′-methylbenzophenone] | 1 | 42 | 1 | 42 | 1 | 42 | 44 | 78 | 42.5 |  |  |  |  |  |  |  |  |  |  |  |
| CC1(C)CCC(Cc2ccc(Cl)cc2)C1(O)Cn1cncn1 (centres unmarked) [Metconazole] |  |  |  |  |  |  |  |  |  | 58 | 2 | 75 | 99 | 0 | 47 | 0 | 2 | 7 | 14 | 40 |
